Test results from the supplement of paper PMC10307832.

Tests used:
Assay in all cases: relative viability (nuclei count vs DMSO), 5 days (fraction); higher = more cells survive
[1] = compound: O=C(C[C@H]1NCCC[C@@H]1O)Cn1cnc2cc(Br)c(Cl)cc2c1=O (racemic) [Halofuginone] + CC(=O)c1c(C)c2cnc(Nc3ccc(N4CCNCC4)cn3)nc2n(C2CCCC2)c1=O [Palbociclib] (partner 0.5 µM)
Summary of the method: (§1)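 A single step with final 0.05% Triton X-100, 1% formaldehyde and 1 ug/ml Hoechst fixed the cells and stained nuclei 5 days after treatment. Lung cancer cell lines in 1536-well plates had been treated by pin tool the day after seeding with one drug alone or a fixed anchor-drug dose plus five library-drug doses (not always all listed) in √10 steps, and nuclei were counted on 4× images. Relative viability is the ratio of nuclei in treated wells to nuclei in vehicle wells, taken as the median of duplicate plates.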

[2] = compound: O=C(C[C@H]1NCCC[C@@H]1O)Cn1cnc2cc(Br)c(Cl)cc2c1=O (racemic) [Halofuginone] + C[C@@H](Oc1cc(-c2cnn(C3CCNCC3)c2)cnc1N)c1c(Cl)ccc(F)c1Cl [Crizotinib] (partner 1 µM)
Summary of the method: as §1

Decitabine + Palbociclib = compound: Nc1ncn([C@H]2C[C@H](O)[C@@H](CO)O2)c(=O)n1 [Decitabine] + CC(=O)c1c(C)c2cnc(Nc3ccc(N4CCNCC4)cn3)nc2n(C2CCCC2)c1=O [Palbociclib] (partner 0.5 µM)
Summary of the method: as §1

Cediranib + Dasatinib = compound: COc1cc2c(Oc3ccc4[nH]c(C)cc4c3F)ncnc2cc1OCCCN1CCCC1 [Cediranib] + Cc1nc(Nc2ncc(C(=O)Nc3c(C)cccc3Cl)s2)cc(N2CCN(CCO)CC2)n1 [Dasatinib] (partner 0.075 µM)
Summary of the method: as §1

Row | Cell Line | relative viability ([1]; first compound 0.001 µM) | relative viability ([1]; first compound 0.003162 µM) | relative viability ([1]; first compound 0.01 µM) | relative viability ([1]; first compound 0.03162 µM) | relative viability ([1]; first compound 0.1 µM) | relative viability ([2]; first compound 0.001 µM) | relative viability ([2]; first compound 0.003162 µM) | relative viability ([2]; first compound 0.01 µM) | relative viability ([2]; first compound 0.03162 µM) | relative viability ([2]; first compound 0.1 µM) | relative viability (Decitabine + Palbociclib; first compound 0.04 µM) | relative viability (Decitabine + Palbociclib; first compound 0.1265 µM) | relative viability (Decitabine + Palbociclib; first compound 0.4 µM) | relative viability (Decitabine + Palbociclib; first compound 1.265 µM) | relative viability (Decitabine + Palbociclib; first compound 4 µM) | relative viability (Cediranib + Dasatinib; first compound 0.04 µM) | relative viability (Cediranib + Dasatinib; first compound 0.4 µM) | relative viability (Cediranib + Dasatinib; first compound 1.265 µM) | relative viability (Cediranib + Dasatinib; first compound 4 µM) | relative viability (Cediranib + Dasatinib; first compound 0.1265 µM)
1 | HCC-44 | 0.976 | 0.964 | 0.962 | 0.932 | 0.966 | 0.89 | 0.833 | 0.72 | 0.745 | 0.516 | 1.01 | 0.935 | 0.808 | 0.761 | 0.873 |  |  |  |  | 
2 | HARA | 0.382 | 0.266 | 0.234 | 0.264 | 0.216 | 1.17 | 1.05 | 0.985 | 1.05 | 0.943 | 0.238 | 0.244 | 0.253 | 0.223 | 0.207 | 0.193 | 0.247 | 0.237 | 0.239 | 
3 | 201T | 0.369 | 0.185 | 0.381 | 0.367 | 0.351 | 0.966 | 1.02 | 1.04 | 1.05 | 0.964 | 0.373 | 0.383 | 0.439 |  | 0.379 | 0.622 | 0.628 | 0.575 | 0.582 | 0.67
4 | LC-2-ad | 0.504 | 0.505 | 0.456 | 0.478 | 0.411 | 0.555 | 0.472 | 0.431 | 0.516 | 0.439 | 0.498 | 0.538 | 0.48 | 0.365 | 0.463 | 0.555 | 0.427 | 0.496 | 0.403 | 0.654
5 | NCI-H596 |  |  |  |  |  | 1.23 | 1.05 | 0.941 | 1.01 | 0.666 |  |  |  |  |  | 0.67 | 0.548 |  | 0.618 | 0.616
6 | NCI-H1437 | 0.334 | 0.3 | 0.296 | 0.33 | 0.286 | 0.935 | 0.918 | 0.807 | 0.73 | 0.841 | 0.343 | 0.321 | 0.247 | 0.265 | 0.28 | 0.455 | 0.445 | 0.385 | 0.399 | 0.543
7 | NCI-H727 | 0.715 | 0.582 | 0.677 | 0.703 | 0.575 | 0.689 | 1.04 | 0.771 | 0.574 | 0.234 | 0.641 | 0.608 | 0.653 | 0.617 | 0.6 |  | 0.358 | 0.337 | 0.367 | 
8 | PC-3 [JPC-3] | 0.595 | 0.511 | 0.529 | 0.516 | 0.493 | 1.03 | 0.969 | 0.975 | 0.943 | 0.988 |  | 0.572 | 0.496 | 0.493 | 0.511 | 1.09 | 0.966 | 1.04 | 0.909 | 1.1
9 | SW 1573 | 0.422 |  | 0.392 | 0.23 | 0.106 | 1.03 | 0.915 | 0.803 | 0.574 | 0.195 | 0.429 | 0.407 | 0.367 | 0.228 | 0.251 | 0.646 | 0.43 | 0.389 | 0.524 | 0.661
10 | Calu-6 |  |  |  |  |  | 0.882 | 0.814 | 0.82 | 0.407 | 0.151 |  |  |  |  |  |  |  |  |  | 
11 | NCI-H1395 | 0.645 | 0.589 | 0.542 | 0.553 | 0.458 |  |  |  |  |  | 0.583 | 0.606 | 0.6 | 0.55 | 0.523 | 0.44 | 0.37 | 0.374 | 0.405 | 0.45
12 | NCI-H1623 |  |  |  |  |  |  |  |  |  |  |  |  |  |  |  | 0.618 | 0.523 | 0.463 | 0.536 | 
13 | NCI-H1299 |  |  |  |  |  | 1.03 | 1.01 | 0.959 | 0.873 | 0.397 |  |  |  |  |  |  |  |  |  | 
14 | NCI-H1703 |  |  |  |  |  | 1.04 | 0.583 | 0.538 | 0.592 | 0.28 |  |  |  |  |  |  |  |  |  | 
15 | NCI-H522 | 0.861 | 0.756 | 0.829 | 1.04 | 0.95 |  |  |  |  |  | 0.97 | 0.803 | 0.817 | 0.634 | 0.533 | 0.827 | 0.85 | 0.965 | 0.811 | 0.77
16 | NCI-H1793 | 0.271 | 0.348 | 0.292 | 0.335 | 0.196 |  |  |  |  |  | 0.339 | 0.329 | 0.381 | 0.301 | 0.31 | 0.317 | 0.398 |  | 0.501 | 0.415
17 | IA-LM |  |  |  |  |  | 0.845 | 0.899 | 0.768 | 0.384 | 0.0479 |  |  |  |  |  |  |  |  |  | 
18 | SW 900 | 0.626 | 0.483 |  | 0.622 | 0.215 |  |  |  |  |  | 0.457 | 0.506 | 0.314 | 0.305 | 0.348 | 0.629 | 0.594 | 0.654 | 0.524 | 0.669
19 | NCI-H1563 |  |  |  |  |  | 0.868 | 0.835 | 0.891 | 0.555 | 0.452 |  |  |  |  |  | 0.494 | 0.498 | 0.513 | 0.492 | 0.897
20 | NCI-H2342 | 0.503 | 0.578 | 0.511 | 0.512 | 0.527 |  |  |  |  |  | 0.641 | 0.54 | 0.548 | 0.463 | 0.508 | 0.334 | 0.288 | 0.295 | 0.327 | 0.392
